Laboratory results published in article PMC6009886, “Methanethiosulfonate derivatives as ligands of the STAT3-SH2 domain” (Journal of Enzyme Inhibition and Medicinal Chemistry, 2017).
Structures can show the parent of a compound that is named as a salt. Marks after values point to notes of the source that are not given here.

Columns and labels:
STAT3-SH2 domain = target: T1, STAT3-SH2 domain (Homo sapiens, UniProt P40763); assay: AlphaScreen-based assay, STAT3-SH2 domain / pTyr peptide binding; settings: for inhibition at 30 µM: a = mean of two experiments; for IC50: read-out: STAT3 IC50 (μM) ± SD
T1 construct: First, 75 nM of each SH2-containing protein was incubated with the test compound for 15 min
T1 sequence (P40763 whole entry, the tested form may be a part): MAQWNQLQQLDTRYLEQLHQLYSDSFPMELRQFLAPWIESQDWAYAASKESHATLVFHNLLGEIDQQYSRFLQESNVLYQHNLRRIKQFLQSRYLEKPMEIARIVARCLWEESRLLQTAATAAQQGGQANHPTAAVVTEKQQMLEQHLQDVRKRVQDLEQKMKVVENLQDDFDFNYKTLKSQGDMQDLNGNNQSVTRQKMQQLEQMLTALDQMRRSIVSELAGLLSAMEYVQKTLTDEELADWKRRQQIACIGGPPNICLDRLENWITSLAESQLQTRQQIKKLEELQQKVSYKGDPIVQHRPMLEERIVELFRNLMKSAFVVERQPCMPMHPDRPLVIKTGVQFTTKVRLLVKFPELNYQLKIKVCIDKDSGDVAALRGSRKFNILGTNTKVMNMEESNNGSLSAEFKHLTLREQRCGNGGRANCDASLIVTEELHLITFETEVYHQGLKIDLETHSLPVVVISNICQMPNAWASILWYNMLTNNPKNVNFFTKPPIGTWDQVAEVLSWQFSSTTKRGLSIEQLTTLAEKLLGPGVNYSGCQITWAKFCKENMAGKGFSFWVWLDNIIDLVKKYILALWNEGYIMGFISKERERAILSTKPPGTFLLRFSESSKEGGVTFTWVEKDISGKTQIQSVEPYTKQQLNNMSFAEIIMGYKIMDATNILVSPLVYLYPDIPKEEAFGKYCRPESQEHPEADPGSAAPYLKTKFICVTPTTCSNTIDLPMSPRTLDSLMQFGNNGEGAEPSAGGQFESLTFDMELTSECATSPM

STAT1 = target: T2, STAT1 (Homo sapiens, UniProt P42224); assay: AlphaScreen-based assay, selectivity versus STAT1; format: binding; settings: for IC50: read-out: STAT1 IC50 (μM) ± SD
T2 construct: First, 75 nM of each SH2-containing protein was incubated with the test compound for 15 min
T2 sequence (P42224 1-750): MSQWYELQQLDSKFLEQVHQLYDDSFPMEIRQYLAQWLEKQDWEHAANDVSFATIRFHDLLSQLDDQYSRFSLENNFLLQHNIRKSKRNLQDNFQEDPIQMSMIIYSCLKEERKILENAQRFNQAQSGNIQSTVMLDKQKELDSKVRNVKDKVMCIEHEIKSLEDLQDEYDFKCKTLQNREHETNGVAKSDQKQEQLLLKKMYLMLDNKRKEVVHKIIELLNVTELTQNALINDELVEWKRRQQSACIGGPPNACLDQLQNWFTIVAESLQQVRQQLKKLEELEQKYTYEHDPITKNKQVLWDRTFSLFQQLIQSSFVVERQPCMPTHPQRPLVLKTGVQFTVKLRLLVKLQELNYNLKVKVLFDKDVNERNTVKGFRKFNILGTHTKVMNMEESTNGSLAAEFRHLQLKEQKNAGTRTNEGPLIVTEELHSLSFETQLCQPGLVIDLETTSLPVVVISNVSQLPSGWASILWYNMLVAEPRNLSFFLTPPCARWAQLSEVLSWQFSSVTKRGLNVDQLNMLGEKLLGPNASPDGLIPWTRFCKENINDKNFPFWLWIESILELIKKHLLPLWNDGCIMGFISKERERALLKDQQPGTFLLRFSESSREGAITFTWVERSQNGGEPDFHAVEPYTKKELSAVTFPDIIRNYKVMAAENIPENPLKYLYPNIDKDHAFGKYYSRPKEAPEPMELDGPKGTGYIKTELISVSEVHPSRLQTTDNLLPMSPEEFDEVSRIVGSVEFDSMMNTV
Procedure: (§1) STAT3 inhibitory activity of the described compounds was tested by the AlphaScreen-based assay to evaluate the potential inhibition of the interaction between STAT3-SH2 domain and pTyr-containing peptides according to the previously reported procedure. For the most interesting compounds, selectivity tests versus STAT1 and Grb2 (Growth factor receptor-bound protein 2) were performed. AlphaScreen is a bead-based nonradioactive assay system for detecting biomolecular interactions in a microtiter plate format. Binding of biological partners brings donor and acceptor beads into close proximity and as result, a luminescent signal between 520 and 620 nm is produced. The AlphaScreen-based assays were typically performed in a final reaction volume of 25 μl of the assay buffer containing 10 mM HEPES–NaOH (pH 7.4), 50 mM NaCl, 1 mM EDTA (pH 8.0), 0.1% NP-40, and 10 ng/μl BSA in a 96-well microtiter plate at 25 °C. Phospho-Tyr (pTyr) peptide probes used in this study were 5-carboxyfluorescein (FITC)-GpYLPQTV for STAT3, FITC-GpYDKPHVL for STAT1, and FITC-PSpYVNVQN for Grb2. First, 75 nM of each SH2-containing protein was incubated with the test compound for 15 min. Each protein sample was then incubated for 90 min with 50 nM of its corresponding FITC-pTyr peptide, and mixed with streptavidin-coated donor beads and anti-FITC acceptor beads simultaneously before detection at 570 nm using EnVisonXcite (Perkin Elmer, Waltham, MA).

[1] = tested on: T3, Grb2 (Growth factor receptor-bound protein 2); assay: AlphaScreen-based assay, selectivity versus Grb2; format: binding; settings: a = mean of two experiments
T3 construct: First, 75 nM of each SH2-containing protein was incubated with the test compound for 15 min
Procedure: as §1

HCT-116 cell line = assay: MTT assay, cytotoxicity on HCT-116 cell line; format: cell-based, human; settings: for antiproliferative / cytotoxic activity on HCT-116 cell line (in words): 48 h treatment; for IC50: Homo sapiens, HCT-116, 48 h treatment, NA: not active up to 200 μM, read-out: HCT-116 IC50 (μM) ± SD
Procedure: The colorectal cancer HCT116 cells were cultured in McCoy’s media supplemented with penicillin (10,000 U/ml), streptomycin (10 mg/ml), nonessential amino acid, and 10% fetal calf serum (FCS). Cells were then seeded in 48 well plates and, after 24 h, they were incubated with different concentration of newly synthesized compounds dissolved in DMSO.
After 48 h of treatment, medium was removed from each well, and cells were incubated with fresh medium, containing 10% (v/v) of MTT (3-(4,5-dimethyl-2-thiazolyl)-2,5-diphenyl-2H-tetrazolium bromide) reagent. MTT, by interacting with vital cells mitochondria, is converted to formazan, with the development of visible purple crystals. After dissolving these crystals with isopropanol-HCl, the quantification of the conversion of MTT to formazan is determined through spectrophotometer analysis (595 nM), as previously described.

STAT3 homodimers = tested on: STAT3 homodimers; parameters: method as in PMID 17463090; settings: read-out: IC50, blocked the formation of STAT3 homodimers; cited from earlier work

inhibition at 30 µM (STAT3-SH2 domain) [%] | IC50 (STAT3-SH2 domain) [µM] | inhibition at 30 µM (STAT1) [%] | IC50 (STAT1) [µM] | inhibition at 3 µM (STAT3-SH2 domain) [%] | Grb2 % Inhibition 3 μM [1] | inhibition at 3 µM (STAT1) [%] | inhibition / binding of STAT3-SH2 domain (in words) (STAT3-SH2 domain; highest concentration tested 30 μM) | Compound | antiproliferative / cytotoxic activity on HCT-116 cell line (in words) (HCT-116 cell line) | IC50 (HCT-116 cell line) [µM] | IC50 (STAT3 homodimers) [µM]
3.8 ± 1.9 | > 30 | 6.3 ± 1.7 | > 30 |  |  |  |  | CC(=O)Oc1ccccc1C(=O)O [ASA, acetyl salicylic acid, reference compound] |  |  | 
102 | 0.7 ± 0.1 |  | > 3 | 101 ± 2.2 | 76.0^a % | 44.9 ± 10.5 |  | CCCC(CCC)C(=O)OCCSS(C)(=O)=O [Compound 1, 2-((Methylsulfonyl)thio)ethyl 2-propylpentanoate] | moderate antiproliferative activity | 136 ± 2.2 | 
106 | 1.4 ± 0.1 |  | > 3 | 67.2 ± 11 | −23.3^a % | 1.9 ± 2.2 |  | CCCC(CCC)C(=O)NCCSS(C)(=O)=O [Compound 2, S-(2-(2-propylpentanamido)ethyl) methanesulfonothioate] | inefficacious at concentration up to 100–200 μM |  | 
102 | 0.5 ± 0.1 |  | > 3 | 105 ± 8.2 | 74.6^a % | 46.7 ± 1.1 |  | CC1=C(CC(=O)OCCSS(C)(=O)=O)c2cc(F)ccc2/C1=C\c1ccc([S+](C)[O-])cc1 (centres unmarked) [Compound 3, (Z)-5-fluoro-2-methyl-1-[[4-(methylsulfinyl)phenyl]methylene]-1H-indene-3-acetic acid 2-methanesulfonylsulfanylethyl ester] | moderate antiproliferative activity | 104 ± 10.9 | 
102 | 0.5 ± 0.2 |  | > 3 | 110 ± 2.2 | 77.8^a % | 35.4 ± 2.1 |  | CS(=O)(=O)SCCOC(=O)Cc1ccccc1Nc1c(Cl)cccc1Cl [Compound 5, 2-((methylsulfonyl)thio)ethyl 2-(2-((2,6-dichlorophenyl)amino)phenyl)acetate] | inefficacious at concentration up to 100–200 μM |  | 
58.4 ± 1.1 | 4.9 ± 0.4 | 39.6 ± 0.8 | > 30 | 46 ± 0.8 |  | 18 ± 0.2 |  | Cc1ccc(S(=O)(=O)SCC(=O)Nc2ccc(C(=O)O)c(O)c2)cc1 [Compound 6, 2-Hydroxy-4-(2-(tosylthio)acetamido)benzoic acid] |  | > 200 | 
41.8 ± 0.9 | > 30 |  |  |  |  |  | moderately inhibited | CS(=O)(=O)CSC(=O)c1ccc(N)cc1O [Compound 8, S-((methylsulfonyl)methyl) 4-amino-2-hydroxybenzothioate] | good cytotoxic activity | 26.3 ± 11.6 | 
 | > 30 |  |  |  |  |  |  | CS(=O)(=O)SCCO [Compound 9, S-(2-hydroxyethyl) methanesulfonothioate, reference compound] |  |  | 
 | > 3 |  | > 3 |  | 12.3^a % |  |  | CS(=O)(=O)SCCN [Compound 10, S-(2-aminoethyl) methanesulfonothioate, reference compound] |  |  | 
7.2 ± 1.7 |  |  |  |  |  |  |  | Cc1ccc(S(=O)(=O)OCC(=O)Nc2ccc(C(=O)O)c(O)c2)cc1 [Compound S3I-301, reference compound] |  | 39.5 ± 7.7 | 86
4.5 ± 2.4 | > 30 | 6.5 ± 2.1 | > 30 |  |  |  |  | O=C(O)Cc1ccccc1Nc1c(Cl)cccc1Cl [Diclofenac sodium salt, reference compound] |  |  | 
4.2 ± 3.2 | > 30 | 4.9 ± 2 | > 30 |  |  |  |  | CC1=C(CC(=O)O)c2cc(F)ccc2/C1=C\c1ccc([S+](C)[O-])cc1 (centres unmarked) [Sulindac, sulindac, reference compound] |  |  | 
0.2 ± 3.2 | > 30 | 2.7 ± 3 | > 30 |  |  |  |  | CCCC(CCC)C(=O)O [VA, valproic acid, reference compound] |  |  | 

Compound | inhibition at 30 µM (STAT3-SH2 domain) [%] | IC50 (STAT3-SH2 domain) [µM] | inhibition at 30 µM (STAT1) [%] | IC50 (STAT1) [µM] | inhibition at 3 µM (STAT3-SH2 domain) [%] | Grb2 % Inhibition 3 μM [1] | inhibition at 3 µM (STAT1) [%] | inhibition / binding of STAT3-SH2 domain (in words) (STAT3-SH2 domain; highest concentration tested 30 μM) | antiproliferative / cytotoxic activity on HCT-116 cell line (in words) (HCT-116 cell line) | IC50 (HCT-116 cell line) [µM] | IC50 (STAT3 homodimers) [µM]
CC(=O)Oc1ccccc1C(=O)OCCSS(C)(=O)=O [Compound 4, 2-Acetoxybenzoic acid 2-methanesulfonylsulfanyl-ethyl ester] | 100 ± 0.1 | 1.4 ± 0.1 | 99.8 ± 0.4 | 3.6 | 93.5 ± 2.6 | 15.9^a % | 44.2 ± 0.8 |  | moderate antiproliferative activity | 87.9 ± 11.4 | 
